Values of other authors in patent US7611733B2, “Nanoparticle formulations of platinum compounds” (priority 2004, dated 2009).
Counter-ions that a name gives are not always drawn.

Tested on: variety of tumor cell lines

SMILES: [NH2][Pt+]([NH2])([Cl])[NH]CCCCCC[NH2+]CC[NH2+]CCCCCC[NH][Pt+]([NH2])([NH2])[Cl] [Formula II, bis{trans(diammine)(chloro)platinum(II)}μ(1,16-diamino-7,10-diazahexadecane-N1,N16) dinitrate salt. 2HNO3]
- antitumor activity: outstanding antitumor activity
